The values that follow are results of earlier work, collected in patent US20230404077A1, “METHODS AND FORMULATIONS FOR CONTROLLING FLEA INFESTATIONS” (EctoGuard, LLC, priority 2022, published 2023).

For data set [1], the system named is fleas. Conditions: cats.
Data set [2] deals with fleas. The settings on record: systemic / administered orally.
Data set [3] has as its system fleas. Conditions: cats, topical.

With spinosad, in data set [1], the “commercial oral dose for effective control (≥90% mortality)” value was 45 to 90 mg/kg.
Take spinetoram: in data set [2], the “activity relative to spinosad” value is given as 5.5 times. In data set [3], the “topically active dose, corresponding extrapolated value” is listed as “around 10 mg/kg”.
